Results from patent publication US9127001B2, “Substituted 4,5,6,7-tetrahydro-1H-pyrazolo[4,3-c]pyridines, their use as medicament, and pharmaceutical preparations comprising them” (Sanofi, priority 2011, dated 2015).

molecular target: Human TASK-1 channels (Homo sapiens (Human), UniProt O14649); experiment: Activity on the TASK-1 channel in Xenopus oocytes (two-microelectrode voltage clamp); format: cell-based; conditions: not given
Procedure: Human TASK-1 channels were expressed in Xenopus oocytes. For this purpose, oocytes were isolated from Xenopus laevis and defoliculated. Subsequently, TASK-1-encoding RNA synthesized in vitro was injected into oocytes. […] Data were acquired and analyzed using a TEC-10cx amplifier (NPI Electronic, Tamm, Germany) connected to an ITC-16 interface (Instrutech Corp., Long Island, USA) and Pulse software (HEKA Elektronik, Lambrecht, Germany). […] Oocytes were continuously superfused with ND96 buffer containing: NaCl 96 mM, KCl 2 mM, CaCl2 1.8 mM, MgCl2 1 mM, HEPES 5 mM (pH adjusted to 7.4 with NaOH). All experiments were performed at room temperature.
Test substances were consecutively added to the bath solution at rising concentrations. […] IC50 values were obtained by fitting the data to the general dose-response equation.

Sequence of Human TASK-1 channels (O14649 whole entry, the tested form may be a part): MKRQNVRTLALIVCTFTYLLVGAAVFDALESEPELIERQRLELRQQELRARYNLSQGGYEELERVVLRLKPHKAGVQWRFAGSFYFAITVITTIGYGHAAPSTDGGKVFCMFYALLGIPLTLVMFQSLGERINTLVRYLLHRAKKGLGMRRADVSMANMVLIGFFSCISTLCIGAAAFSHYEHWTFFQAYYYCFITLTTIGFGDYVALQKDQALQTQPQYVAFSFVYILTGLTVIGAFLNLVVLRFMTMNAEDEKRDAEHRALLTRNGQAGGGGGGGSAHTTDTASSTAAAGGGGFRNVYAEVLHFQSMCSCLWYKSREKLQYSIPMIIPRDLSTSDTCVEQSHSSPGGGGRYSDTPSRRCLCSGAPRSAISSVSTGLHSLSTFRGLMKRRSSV

Row | SMILES | inhibition at 5 µM [%]
1 | CC(=O)N1CCc2c(c(-c3cccc(C)c3)nn2Cc2ccccc2F)C1 [Example 6bb, 1-[1-(2-Fluoro-benzyl)-3-m-tolyl-1,4,6,7-tetrahydro-pyrazolo[4,3-c]pyridin-5-yl]-ethanone] | 82
2 | CC(=O)N1CCc2c(c(-c3cccc(C)c3)nn2Cc2ccc(Cl)s2)C1 [Example 6ag, 1-[1-(5-Chloro-thiophen-2-ylmethyl)-3-m-tolyl-1,4,6,7-tetrahydro-pyrazolo[4,3-c]pyridin-5-yl]-ethanone] | 75
3 | CC(=O)N1CCc2c(c(-c3ccsc3)nn2Cc2ccc(F)cc2F)C1 [Example 6al, 1-[1-(2,4-Difluoro-benzyl)-3-thiophen-3-yl-1,4,6,7-tetrahydro-pyrazolo[4,3-c]pyridin-5-yl]-ethanone] | 75
4 | COc1ccccc1Cn1nc(-c2cccc(C(F)(F)F)c2)c2c1CCN(C(C)=O)C2 [Example 6bc, 1-[1-(2-Methoxy-benzyl)-3-(3-trifluoromethyl-phenyl)-1,4,6,7-tetrahydro-pyrazolo[4,3-c]pyridin-5-yl]-ethanone] | 70
5 | CC(=O)N1CCc2c(c(-c3cccc(C(F)(F)F)c3)nn2Cc2ccc(Cl)s2)C1 [Example 6ah, 1-[1-(5-Chloro-thiophen-2-ylmethyl)-3-(3-trifluoromethyl-phenyl)-1,4,6,7-tetrahydro-pyrazolo[4,3-c]pyridin-5-yl]-ethanone] | 53
6 | CC(=O)N1CCc2c(c(-c3cccc(C(F)(F)F)c3)nn2Cc2csc(C)n2)C1 [Example 6ad, 1-[1-(2-Methyl-thiazol-4-ylmethyl)-3-(3-trifluoromethyl-phenyl)-1,4,6,7-tetrahydro-pyrazolo[4,3-c]pyridin-5-yl]-ethanone] | 86

The next lines start with the values.

Row | inhibition at 5 µM [%] | SMILES
7 | 75 | COc1ccc(-c2nn(Cc3ccc(F)cc3F)c3c2CN(C(C)=O)CC3)nc1Cl [Example 6z, 1-[3-(6-Chloro-5-methoxy-pyridin-2-yl)-1-(2,4-difluoro-benzyl)-1,4,6,7-tetrahydro-pyrazolo[4,3-c]pyridin-5-yl]-ethanone]
8 | 82 | CC(=O)N1CCc2c(c(-c3cc(C)ccn3)nn2Cc2ccc(F)cc2F)C1 [Example 6x, 1-[1-(2,4-Difluoro-benzyl)-3-(4-methyl-pyridin-2-yl)-1,4,6,7-tetrahydro-pyrazolo[4,3-c]pyridin-5-yl]-ethanone]
9 | 76 | CC(C)NC(=O)N1CCc2c(c(-c3cccc(C#N)c3)nn2Cc2ccc(F)cc2F)C1 [Example 11a, 3-(3-Cyano-phenyl)-1-(2,4-difluoro-benzyl)-1,4,6,7-tetrahydro-pyrazolo[4,3-c]pyridine-5-carboxylic acid isopropylamide]
10 | 91 | CCNC(=O)N1CCc2c(c(-c3cccc(C#N)c3)nn2Cc2ccc(F)cc2F)C1 [Example 11h, 3-(3-Cyano-phenyl)-1-(2,4-difluoro-benzyl)-1,4,6,7-tetrahydro-pyrazolo[4,3-c]pyridine-5-carboxylic acid ethylamide]

same assay, conditions: human TASK-1 expressed in Xenopus oocytes, currents during pulses to 40 mV, room temperature

Row | SMILES | IC50 [nM]
11 | CC(=O)N1CCc2c(c(-c3cccc(OC(F)(F)F)c3)nn2Cc2ccc(F)cc2F)C1 [Example 6ap, 1-[1-(2,4-Difluoro-benzyl)-3-(3-trifluoromethoxy-phenyl)-1,4,6,7-tetrahydro-pyrazolo[4,3-c]pyridin-5-yl]-ethanone] | 285
12 | CC(=O)N1CCc2c(c(-c3ccc(F)cc3)nn2C(C)c2ccc(F)cc2)C1 (single isomer, unassigned; (-)) [Example 6bf, (−)-1-{3-(4-Fluoro-phenyl)-1-[1-(4-fluoro-phenyl)-ethyl]-1,4,6,7-tetrahydro-pyrazolo[4,3-c]pyridin-5-yl}-ethanone] | 500
13 | CC(=O)N1CCc2c(c(-c3cccc(C(F)(F)F)c3)nn2Cc2ccc(C#N)cc2)C1 [Example 6am, 4-[5-Acetyl-3-(3-trifluoromethyl-phenyl)-4,5,6,7-tetrahydro-pyrazolo[4,3-c]pyridin-1-ylmethyl]-benzonitrile] | 114
14 | CC(=O)N1CCc2c(c(-c3ccc(F)cc3)nn2Cc2cccc(C(F)(F)F)c2)C1 [Example 6av, 1-[3-(4-Fluoro-phenyl)-1-(3-trifluoromethyl-benzyl)-1,4,6,7-tetrahydro-pyrazolo[4,3-c]pyridin-5-yl]-ethanone] | 911
15 | COc1cc(-c2nn(Cc3ccc(F)cc3F)c3c2CN(C(C)=O)CC3)ccc1F [Example 6ax, 1-[1-(2,4-Difluoro-benzyl)-3-(4-fluoro-3-methoxy-phenyl)-1,4,6,7-tetrahydro-pyrazolo[4,3-c]pyridin-5-yl]-ethanone] | 975
16 | CC(=O)N1CCc2c(c(-c3ccc(F)cc3)nn2C(c2ccc(F)cc2)C2CC2)C1 (centres unmarked) [Example 6ao, 1-[1-[Cyclopropyl-(4-fluoro-phenyl)-methyl]-3-(4-fluoro-phenyl)-1,4,6,7-tetrahydro-pyrazolo[4,3-c]pyridin-5-yl]-ethanone] | 258
17 | COc1ccc(F)c(-c2nn(Cc3ccc(F)cc3F)c3c2CN(C(C)=O)CC3)c1 [Example 6bh, 1-[1-(2,4-Difluoro-benzyl)-3-(2-fluoro-5-methoxy-phenyl)-1,4,6,7-tetrahydro-pyrazolo[4,3-c]pyridin-5-yl]-ethanone] | < 10000

Second part, the compound after the results:

Row | IC50 [nM] | SMILES
18 | 276 | CC1(C(=O)N2CCc3c(c(-c4cccc(C#N)c4)nn3Cc3ccc(F)cc3F)C2)COC1 [Example 8a, 3-[1-(2,4-Difluoro-benzyl)-5-(3-methyl-oxetane-3-carbonyl)-4,5,6,7-tetrahydro-1H-pyrazolo[4,3-c]pyridin-3-yl]-benzonitrile]
19 | 1140 | O=C(Cc1ccccc1)N1CCc2c(c(-c3ccc(F)cc3)nn2Cc2ccccc2)C1 [Example 8r, 1-[1-Benzyl-3-(4-fluoro-phenyl)-1,4,6,7-tetrahydro-pyrazolo[4,3-c]pyridin-5-yl]-2-phenyl-ethanone]
20 | < 10000 | CCCC(=O)N1CCc2c(c(-c3cccc(C#N)c3)nn2Cc2ccc(F)cc2F)C1 [Example 8s, 3-[5-Butyryl-1-(2,4-difluoro-benzyl)-4,5,6,7-tetrahydro-1H-pyrazolo[4,3-c]pyridin-3-yl]-benzonitrile]
21 | 2400 | O=C(c1ccccc1)N1CCc2c(c(-c3ccc(F)cc3)nn2Cc2ccccc2)C1 [Example 8h, [1-Benzyl-3-(4-fluoro-phenyl)-1,4,6,7-tetrahydro-pyrazolo[4,3-c]pyridin-5-yl]-phenyl-methanone]
22 | < 10000 | N#Cc1cccc(-c2nn(Cc3ccc(F)cc3F)c3c2CN(C(=O)CO)CC3)c1 [Example 14a, 3-[1-(2,4-Difluoro-benzyl)-5-(2-hydroxy-acetyl)-4,5,6,7-tetrahydro-1H-pyrazolo[4,3-c]pyridin-3-yl]-benzonitrile]
23 | 380 | CNC(=O)N1CCc2c(c(-c3cccc(C#N)c3)nn2Cc2ccc(F)cc2F)C1 [Example 12a, 3-(3-Cyano-phenyl)-1-(2,4-difluoro-benzyl)-1,4,6,7-tetrahydro-pyrazolo[4,3-c]pyridine-5-carboxylic acid methylamide]
24 | 64 | N#Cc1cccc(-c2nn(Cc3ccc(F)cc3F)c3c2CN(C(=O)C2CCC2)CC3)c1 [Example 8i, 3-[5-Cyclobutane-carbonyl-1-(2,4-difluoro-benzyl)-4,5,6,7-tetrahydro-1H-pyrazolo[4,3-c]pyridin-3-yl]-benzonitrile]
25 | 246 | N#Cc1cccc(-c2nn(Cc3ccc(F)cc3F)c3c2CN(C(=O)c2ccccn2)CC3)c1 [Example 8t, 3-[1-(2,4-Difluoro-benzyl)-5-(pyridine-2-carbonyl)-4,5,6,7-tetrahydro-1H-pyrazolo[4,3-c]pyridin-3-yl]-benzonitrile]
26 | 511 | CC(=O)N1Cc2c(-c3ccc(F)cc3)nn(Cc3ccc(F)cc3F)c2CC1C (centres unmarked) [Example 8z, 1-[1-(2,4-Difluoro-benzyl)-3-(4-fluoro-phenyl)-6-methyl-1,4,6,7-tetrahydro-pyrazolo[4,3-c]pyridin-5-yl]-ethanone]
27 | 416 | N#Cc1cccc(-c2nn(Cc3ccc(F)cc3F)c3c2CN(C(=O)c2ccncc2F)CC3)c1 [Example 8u, 3-[1-(2,4-Difluoro-benzyl)-5-(3-fluoro-pyridine-4-carbonyl)-4,5,6,7-tetrahydro-1H-pyrazolo[4,3-c]pyridin-3-yl]-benzonitrile]
28 | < 10000 | CC(=O)N1CCc2c(c(-c3cc(Br)ccn3)nn2Cc2ccc(F)cc2F)C1 [Example 6j, 1-[3-(4-Bromo-pyridin-2-yl)-1-(2,4-difluoro-benzyl)-1,4,6,7-tetrahydro-pyrazolo[4,3-c]pyridin-5-yl]-ethanone]
29 | 890 | N#Cc1cccc(-c2nn(Cc3ccc(F)cc3F)c3c2CN(C(=O)C2CCOC2)CC3)c1 (centres unmarked) [Example 8m, 3-[1-(2,4-Difluoro-benzyl)-5-(tetrahydro-furan-3-carbonyl)-4,5,6,7-tetrahydro-1H-pyrazolo[4,3-c]pyridin-3-yl]-benzonitrile]
30 | 1150 | CC(=O)N1CCc2c(c(-c3ccc(C(F)(F)F)cc3)nn2Cc2ccc(F)cc2F)C1 [Example 6bk, 1-[1-(2,4-Difluoro-benzyl)-3-(4-trifluoromethyl-phenyl)-1,4,6,7-tetrahydro-pyrazolo[4,3-c]pyridin-5-yl]-ethanone]
31 | 1640 | CC(=O)N1CCc2c(c(-c3ccc(F)c(C#N)c3)nn2Cc2ccc(F)cc2F)C1 [Example 6bi, 5-[5-Acetyl-1-(2,4-difluoro-benzyl)-4,5,6,7-tetrahydro-1H-pyrazolo[4,3-c]pyridin-3-yl]-2-fluoro-benzonitrile]
32 | 722 | N#Cc1cccc(-c2nn(Cc3ccc(F)cc3F)c3c2CN(C(=O)C2CCCC2)CC3)c1 [Example 8j, 3-[5-Cyclopentane-carbonyl-1-(2,4-difluoro-benzyl)-4,5,6,7-tetrahydro-1H-pyrazolo[4,3-c]pyridin-3-yl]-benzonitrile]
